This is an account of results in publication PMC8652888, “Angiogenesis, Anti-Tumor, and Anti-Metastatic Activity of Novel α-Substituted Hetero-Aromatic Chalcone Hybrids as Inhibitors of Microtubule Polymerization” (Frontiers in Chemistry, 2021).

One data set relates to U937. Nature of the data set: Antiproliferative activity, CCK-8 assay. In kind it is cell-based. To be noted: Homo sapiens, U-937. As for the experimental part: (§1) The synthesized compounds were first evaluated for their cytotoxic effect on MCF-7 (human breast adenocarcinoma), U937 (histiocytic lymphoma cancer), HepG2 (human liver cancer) cells, and MGC-803 (human gastric cancer) using the SRB and CCK-8 assay. As reference compounds CA-4 and colchicine were included.
(§2) The primary tumor cells were purchased from a professional biomedical company. First, the primary tumor cells were incubated in a cell culture incubator at 37°C and 5% CO2. After the cell fusion reached 85%–95%, subculture was performed, and the tumor cells obtained at this time were used for subsequent related experiments. The CCK-8 method was used to inhibit the proliferation of U937 tumor cells, and the SRB method was used to inhibit the proliferation of MCF7 and HepG2 tumor cells.
(§3) The cells in the logarithmic growth phase were seeded in a 96-well plate at 8,000/well, and the drug-containing medium and cell suspension were added to the well. Three wells were added with the blank medium as the blank group. The 96-well plate was incubated for 72 h in a 37°C, 5% CO2 incubator. The 10 μl of CCK-8 dye solution was added to each well, and the incubation continued for 3–4 h.

The subject of a further data set is normal liver LO2 cells. Nature of the data set: Growth inhibition of normal cells. In kind it is cell-based, human.
For data set [1], the system named is taxol-resistant MCF7 cells (MCF7/Tax). Nature of the data set: Growth inhibition of taxol-resistant cells. Format: cell-based, human.
The test system of a further data set is HepG2. In words: Antiproliferative activity, SRB assay. Format: cell-based, human. The following applies: Homo sapiens, HepG2. As for the experimental part:
as §1, §2
(§4) Cells were distributed into 96-well plates with a density of 3 × 10^3–4 × 10^3 cells per well and incubated for 24 h in a 5% CO2 incubator at 37°C, followed by treatment with study compounds at different concentrations at 37°C for 72 h. One hundred microliters of 10% (w/v) trichloroacetic acid was added to each well, fixed at 4°C for 30 min, and dried at 65°C. Then 100 μl of 0.4% SRB was added to each well and stained on a shaker for 20 min at room temperature. The excess dye solution was washed with newly prepared 1% glacial acetic acid and dried at 65°C. One hundred fifty microliters of 10 mM unbuffered Trisbase was added to each well of the plate and shaken for 5 min to dissolve the dye. The microplate reader measured the optical density (OD) at a wavelength of 560 nm.

In a further data set the test system is MCF-7. Nature of the data set: Antiproliferative activity, SRB assay. In kind it is cell-based, human.
For a further data set, the system named is MGC-803. Nature of the data set: Antiproliferative activity (SRB and CCK-8 assay). Format: cell-based. The following applies: Homo sapiens.
Excerpt: as §1

For data set [2], the system named is MCF-7, U937, HepG2 and MGC-803 cells. In words: Antiproliferative activity, cancer cell panel (text summaries). Format: cell-based, human. The following applies: Homo sapiens; U937, MCF-7, HepG2, MGC-803; read-out: IC50 against four cancer cell lines. As for the experimental part:
as §1, §2, §4, §3

[3] abbreviates: 72 h, triplicate, mean ± SD, read-out: IC50 ± SD, U937.
Where [4] appears, read: Homo sapiens, L02, three single determinations, read-out: L02 (raw data of table 3, IC50).
Where [5] appears, read: Homo sapiens, L02, triplicate, read-out: IC50 ± SD, LO2.
The mark [6] stands for this setting: Homo sapiens, MCF7, three single determinations, read-out: MCF-7/Taxol (raw data of table 3, IC50).
Setting [7] is: Homo sapiens, MCF7, triplicate, read-out: IC50 ± SD, MCF7/Tax.
Where [8] appears, read: 72 h, triplicate, mean ± SD, read-out: IC50 ± SD, HepG2.
Where [9] appears, read: Homo sapiens, MCF7, 72 h, 72 h, triplicate, mean ± SD, read-out: IC50 ± SD, MCF-7.
The mark [10] stands for this setting: Homo sapiens, MCF7, Table 3, triplicate, read-out: IC50 ± SD, MCF7.
[11] abbreviates: Homo sapiens, MCF7, supplement raw data, read-out: IC50/MCF.
The mark [12] stands for this setting: Homo sapiens, MCF7, three single determinations, read-out: MCF-7 (raw data of table 3, IC50).
[13] abbreviates: triplicate, mean ± SD, read-out: IC50 ± SD, MGC-803.
Where [14] appears, read: supplement raw data, read-out: IC50/MGC.

The structures appear in SMILES notation. Where “and” joins values, the source holds several entries; their conditions need not be identical. Identical values can stand only once. Like-named read-outs stand apart in the source and are kept apart here. Some results are limits rather than exact numbers.
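Wherever IC50 ± SD, MCF-7 is given: proliferation of MCF7 cells quantified by sulforhodamine B staining, with optical density read at 560 nm.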
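Wherever IC50/MCF is given: proliferation of MCF7 cells quantified by sulforhodamine B staining, with optical density read at 560 nm.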
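Wherever MCF-7 (raw data of table 3, IC50) is given: proliferation of MCF7 cells quantified by sulforhodamine B staining, with optical density read at 560 nm.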

Regarding `COc1ccc(/C=C\c2cc(OC)c(OC)c(OC)c2)cc1O` [CA-4, reference compound], the IC50 in the data set with U937 (setting [3]) is 0.3 ± 0.1 nM; in the data set with U937 (supplement raw data, read-out: IC50/U937) it was 0.326 ± 0.1 nM; in the data set with normal liver LO2 cells (setting [4]), 14.1 nM; with normal liver LO2 cells (setting [5]), 15.2 ± 0.5 nM; in the data set with normal liver LO2 cells (three single determinations, read-out: L02 (raw data of table 3, IC50)), 16.2 nM and 15.3 nM; in data set [1] (setting [6]), 20.2 nM. The IC50 in data set [1] (setting [7]) is 21.2 ± 0.6 nM; in data set [1] (three single determinations, read-out: MCF-7/Taxol (raw data of table 3, IC50)), 22.1 nM and 21.3 nM; in the data set with HepG2 (setting [8]), 7.1 ± 0.9 nM; in the data set with HepG2 (supplement raw data, read-out: IC50/Hepg2), 7.09 ± 0.9 nM; in the data set with MCF-7 (setting [9]) it was 11.4 ± 0.2 nM; in the data set on MCF-7 (setting [10]), 11.4 ± 0.2 nM. The results for the IC50 with MCF-7 (setting [11]) and with MCF-7 (setting [12]) were 11.4 ± 0.2 nM and 11.8 nM, respectively.

In turn, `COC(=O)c1ccc2[nH]cc(/C=C/C(=O)c3cc(OC)c(OC)c(OC)c3)c2c1` [Compound 6e, methyl(E)-3[3-oxo-3-(3,4,5-trimethoxyphenyl)prop-1-en-1-yl]-1H-indole-5-carboxylate] displayed a melting point of 218.7 to 220.3 °C. In addition, the IC50 in the data set with U937 (setting [3]) is > 20000 nM. The IC50 in the data set with MGC-803 (setting [13]) was > 20000 nM. Also, the IC50 in data set [2] is > 20000 nM. Further, in the data set with HepG2 (setting [8]), the IC50 is > 20000 nM. For the same compound, the IC50 with MCF-7 (setting [9]) is > 20000 nM.

Compound `COc1cc(C(=O)/C=C/c2csc3ccccc23)cc(OC)c1OC` [Compound 6p, (E)-3-(benzo[b]thiophen-3-yl)-1-(3,4,5-trimethoxyphenyl)prop-2-en-1-one] yielded a melting point of 95.5 to 96.4 °C. Moreover, the IC50 in the data set with U937 (setting [3]) was > 20000 nM. Moreover, the IC50 in the data set on MGC-803 (setting [14]) is 75.7 nM. In the data set on MGC-803 (setting [13]), the IC50 turned out to be 76 ± 1 nM. In addition, the IC50 in the data set with HepG2 (setting [8]) stood at 1380 ± 136 nM. The IC50 in the data set on MCF-7 (setting [9]) worked out at 283 ± 11 nM. Moreover, the IC50 with MCF-7 (setting [11]) came to 283 nM.

Regarding `COC(=O)c1cccc2[nH]cc(/C=C/C(=O)c3cc(OC)c(OC)c(OC)c3)c12` [Compound 6d, methyl(E)-3[3-oxo-3-(3,4,5-trimethoxyphenyl)prop-1-en-1-yl]-1H-indole-4-carboxylate], the melting point was in the range of 221.7 to 223.6 °C. Also, the IC50 in the data set on U937 (setting [3]) was > 20000 nM. In addition, the IC50 in the data set on MGC-803 (setting [13]) was > 20000 nM. In data set [2], the IC50 is > 20000 nM. In the data set with HepG2 (setting [8]), the IC50 was > 20000 nM. In the data set with MCF-7 (setting [9]), the IC50 was > 20000 nM.

As to `COc1cc(C(=O)/C=C/c2c[nH]c3cc(Br)ccc23)cc(OC)c1OC` [Compound 6g, (E)-3-(6-bromo-1H-indol-3-yl)-1-(3,4,5-trimethoxyphenyl)prop-2-en-1-one], the melting point fell in the range of 216.4 to 217.6 °C. Also, in the data set with U937 (setting [3]), the IC50 is > 20000 nM. For the same compound, the IC50 in the data set on MGC-803 (setting [14]) amounted to 70.6 nM. The IC50 with MGC-803 (setting [13]) amounted to 71 ± 2 nM. Besides, the IC50 in the data set on HepG2 (setting [8]) came to 18100 ± 295 nM. For the same compound, in the data set on MCF-7 (setting [9]), the IC50 is 380 ± 20 nM. Also, the IC50 in the data set with MCF-7 (setting [11]) amounted to 380 nM.

Regarding `CC(=O)O[C@H]1C(=O)[C@@]2(C)[C@H]([C@H](OC(=O)c3ccccc3)[C@]3(O)C[C@H](OC(=O)[C@H](O)[C@@H](NC(=O)c4ccccc4)c4ccccc4)C(C)=C1C3(C)C)[C@]1(OC(C)=O)CO[C@@H]1C[C@@H]2O` [Taxol, paclitaxel], the Selectivity ratio in the data set with normal liver LO2 cells ((IC50 human normal cells LO2)/(IC50 MCF7)) is 1.3. Besides, the IC50 in the data set with normal liver LO2 cells (setting [4]) was 32.1 nM; in the data set on normal liver LO2 cells (setting [5]) it was 32.4 ± 1.9 nM; in the data set on normal liver LO2 cells (three single determinations, listed as TaxolL, read-out: L02 (raw data of table 3, IC50)), 34.5 nM and 30.6 nM; in data set [1] (setting [6]) it was 334 nM; in data set [1] (setting [7]), 336 ± 18 nM; in data set [1] (three single determinations, listed as TaxolL, read-out: MCF-7/Taxol (raw data of table 3, IC50)) it was 315 nM and 359 nM. The IC50 is 24.6 ± 3.2 nM in the data set with MCF-7 (setting [10]); 20.6 nM with MCF-7 (setting [12]); 28.3 nM and 24.9 nM with MCF-7 (three single determinations, listed as TaxolL, read-out: MCF-7 (raw data of table 3, IC50)). The Resistant fold in data set [1] ((IC50 MCF7/Tax)/(IC50 MCF7)) was 13.7.

`COc1cc(C(=O)/C=C/c2cc3ccccc3s2)cc(OC)c1OC` [Compound 6o, (E)-3-(benzo[b]thiophen-2-yl)-1-(3,4,5-trimethoxyphenyl)prop-2-en-1-one]: the melting point was 115.5 to 116.9 °C. Further, in the data set on U937 (setting [3]), the IC50 was > 20000 nM. Besides, the IC50 in the data set on MGC-803 (setting [13]) was 1380 ± 86 nM. Moreover, the IC50 with HepG2 (setting [8]) is 8380 ± 585 nM. Also, the IC50 in the data set with MCF-7 (setting [9]) worked out at 2070 ± 43 nM.

`COc1cc(C(=O)/C=C/c2cc3ccccc3o2)cc(OC)c1OC` [Compound 6h, (E)-3-(benzofuran-2-yl)-1-(3,4,5-trimethoxyphenyl)prop-2-en-1-one] gave a melting point of 79.5 to 80.3 °C. For the same compound, in the data set on U937 (setting [3]), the IC50 is > 20000 nM. In the data set on MGC-803 (setting [13]), the IC50 was 8780 ± 309 nM. For the same compound, the IC50 with HepG2 (setting [8]) is > 20000 nM. Moreover, in the data set with MCF-7 (setting [9]), the IC50 was found to be 14600 ± 368 nM.
